Test results published in PubChem BioAssay AID330 (DTP/NCI, 2004).
Values joined by “and” are separate entries in the source; they are usually repeats but may differ in a detail not shown here. Identical values can stand only once. Inconclusive results and toxic doses are left out. How the source made its calls: active means survival T/C of 150% or more; inactive means T/C below 125% in these data.

Tested on: P388 leukemia ip, CD2F1 mice, survival T/C
Test: NCI In Vivo Anticancer Drug Screen. Data for tumor model P388 Leukemia (intraperitoneal) in CD2F1 (CDF1) mice
Conditions: endpoint: median survival time, higher = longer survival
Procedure, shortened: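 Mice carrying the transplanted tumor received test compound or vehicle. Survival was recorded in each group, and the value is the treated-group measurement divided by that of the vehicle-treated control group.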

Measured: T/C

O=C1c2ccccc2C(=O)c2c(NCCNCCO)ccc(NCCNCCO)c21
active: dose: 0.5 mg/kg/injection, schedule: Q01DX009 (ip), vehicle: water 165 % of control | dose: 1.0 mg/kg/injection, schedule: Q01DX009 (ip), vehicle: water 167 % of control | dose: 1.25 mg/kg/injection, schedule: Q01DX009 (ip), vehicle: saline 192 % of control | dose: 1.25 mg/kg/injection, schedule: Q01DX009 (ip), vehicle: water 155 % of control | dose: 2.0 mg/kg/injection, schedule: Q01DX009 (ip), vehicle: saline 199 % of control | dose: 3.13 mg/kg/injection, schedule: Q01DX005 (ip), vehicle: saline 169 % of control | dose: 3.89 mg/kg/injection, schedule: Q01DX009 (ip), vehicle: saline 200 % of control and 261 % of control | dose: 4.0 mg/kg/injection, schedule: Q01DX009 (ip), vehicle: saline 233 % of control | dose: 5.0 mg/kg/injection, schedule: Q01DX005 (ip), vehicle: saline 223 % of control | dose: 6.25 mg/kg/injection, schedule: Q01DX005 (ip), vehicle: saline 205 % of control | dose: 6.25 mg/kg/injection, schedule: Q01DX009 (ip), vehicle: water 156 % of control | dose: 6.48 mg/kg/injection, schedule: Q01DX009 (ip), vehicle: saline 207 % of control and 245 % of control | dose: 7.78 mg/kg/injection, schedule: Q01DX005 (ip), vehicle: saline 261 % of control | dose: 7.78 mg/kg/injection, schedule: Q04DX003 (ip), vehicle: saline 181 % of control | dose: 8.0 mg/kg/injection, schedule: Q04DX003 (ip), vehicle: Klucel (hydroxypropylcellulose) (HPC) 172 % of control | dose: 8.0 mg/kg/injection, schedule: Q04DX003 (ip), vehicle: saline 153 % of control | dose: 10.0 mg/kg/injection, schedule: Q01DX005 (ip), vehicle: saline 258 % of control | dose: 10.0 mg/kg/injection, schedule: Q04DX003 (ip), vehicle: saline 178 % of control | dose: 10.4 mg/kg/injection, schedule: Q04DX003 (ip), vehicle: saline 196 % of control and 208 % of control | dose: 10.8 mg/kg/injection, schedule: Q01DX009 (ip), vehicle: saline 209 % of control | dose: 10.8 mg/kg/injection, schedule: Q01DX009 (sc), vehicle: saline 178 % of control | dose: 12.5 mg/kg/injection, schedule: Q01DX005 (ip), vehicle: saline 241 % of control | dose: 12.5 mg/kg/injection, schedule: Q01DX009 (ip), vehicle: water 187 % of control | dose: 12.5 mg/kg/injection, schedule: Q04DX003 (ip), vehicle: saline 176 % of control | dose: 13.0 mg/kg/injection, schedule: Q01DX005 (iv), vehicle: saline 161 % of control | dose: 13.0 mg/kg/injection, schedule: Q04DX003 (ip), vehicle: saline 156 % of control and 203 % of control | dose: 13.8 mg/kg/injection, schedule: Q04DX003 (ip), vehicle: saline 209 % of control | dose: 16.0 mg/kg/injection, schedule: Q01DX009 (ip), vehicle: saline 177 % of control | dose: 16.0 mg/kg/injection, schedule: Q04DX003 (ip), vehicle: Klucel (hydroxypropylcellulose) (HPC) 175 % of control | dose: 17.3 mg/kg/injection, schedule: Q04DX003 (ip), vehicle: saline 216 % of control and 241 % of control | dose: 18.0 mg/kg/injection, schedule: Q01DX009 (sc), vehicle: saline 205 % of control | dose: 20.0 mg/kg/injection, schedule: Q01DX001 (ip), vehicle: saline 163 % of control | dose: 20.0 mg/kg/injection, schedule: Q01DX005 (iv), vehicle: saline 173 % of control | dose: 21.6 mg/kg/injection, schedule: Q01DX001 (ip), vehicle: saline 178 % of control and 213 % of control | dose: 25.0 mg/kg/injection, schedule: Q01DX005 (iv), vehicle: saline 178 % of control | dose: 25.0 mg/kg/injection, schedule: Q04DX003 (ip), vehicle: Klucel (hydroxypropylcellulose) (HPC) 157 % of control | dose: 25.0 mg/kg/injection, schedule: Q04DX003 (ip), vehicle: saline 246 % of control | dose: 28.8 mg/kg/injection, schedule: Q04DX003 (ip), vehicle: saline 252 % of control | dose: 30.0 mg/kg/injection, schedule: Q01DX009 (sc), vehicle: saline 227 % of control | dose: 32.0 mg/kg/injection, schedule: Q04DX003 (ip), vehicle: saline 166 % of control | dose: 36.0 mg/kg/injection, schedule: Q01DX001 (ip), vehicle: saline 209 % of control and 233 % of control | dose: 40.0 mg/kg/injection, schedule: Q01DX001 (ip), vehicle: saline 197 % of control | dose: 40.0 mg/kg/injection, schedule: Q01DX005 (ip), vehicle: saline 250 % of control | dose: 40.0 mg/kg/injection, schedule: Q04DX003 (ip), vehicle: saline 214 % of control | dose: 50.0 mg/kg/injection, schedule: Q04DX003 (ip), vehicle: Klucel (hydroxypropylcellulose) (HPC) 150 % of control and 174 % of control | dose: 50.0 mg/kg/injection, schedule: Q04DX003 (ip), vehicle: saline 192 % of control | dose: 60.0 mg/kg/injection, schedule: Q01DX001 (ip), vehicle: saline 218 % of control and 224 % of control | dose: 64.0 mg/kg/injection, schedule: Q04DX003 (ip), vehicle: Klucel (hydroxypropylcellulose) (HPC) 163 % of control | dose: 64.0 mg/kg/injection, schedule: Q04DX003 (ip), vehicle: saline 166 % of control and 201 % of control | dose: 80.0 mg/kg/injection, schedule: Q01DX001 (ip), vehicle: saline 241 % of control | dose: 96.0 mg/kg/injection, schedule: Q04DX003 (ip), vehicle: saline 152 % of control and 153 % of control | dose: 100.0 mg/kg/injection, schedule: Q01DX001 (ip), vehicle: saline 210 % of control | dose: 100.0 mg/kg/injection, schedule: Q04DX003 (ip), vehicle: Klucel (hydroxypropylcellulose) (HPC) 176 % of control and 178 % of control | dose: 128.0 mg/kg/injection, schedule: Q04DX003 (ip), vehicle: saline 173 % of control and 186 % of control | dose: 167.0 mg/kg/injection, schedule: Q01DX001 (ip), vehicle: saline 216 % of control | dose: 192.0 mg/kg/injection, schedule: Q04DX003 (ip), vehicle: saline 150 % of control | dose: 200.0 mg/kg/injection, schedule: Q04DX003 (ip), vehicle: Klucel (hydroxypropylcellulose) (HPC) 157 % of control
inactive: dose: 0.1 mg/kg/injection, schedule: Q04DX003 (ip), vehicle: saline 108 % of control | dose: 0.3 mg/kg/injection, schedule: Q04DX003 (ip), vehicle: saline 116 % of control | dose: 0.5 mg/kg/injection, schedule: Q04DX003 (ip), vehicle: saline 118 % of control | dose: 1.0 mg/kg/injection, schedule: Q04DX003 (ip), vehicle: saline 110 % of control and 115 % of control | dose: 2.0 mg/kg/injection, schedule: Q04DX003 (ip), vehicle: saline 117 % of control | dose: 3.13 mg/kg/injection, schedule: Q01DX005 (iv), vehicle: saline 114 % of control | dose: 3.89 mg/kg/injection, schedule: Q01DX009 (sc), vehicle: saline 118 % of control | dose: 4.0 mg/kg/injection, schedule: Q04DX003 (ip), vehicle: saline 117 % of control | dose: 5.0 mg/kg/injection, schedule: Q01DX005 (iv), vehicle: saline 116 % of control | dose: 6.22 mg/kg/injection, schedule: Q04DX003 (iv), vehicle: saline 109 % of control and 118 % of control | dose: 7.78 mg/kg/injection, schedule: Q01DX001 (iv), vehicle: saline 107 % of control and 111 % of control | dose: 10.0 mg/kg/injection, schedule: Q01DX001 (iv), vehicle: saline 107 % of control | dose: 10.0 mg/kg/injection, schedule: Q04DX003 (iv), vehicle: saline 108 % of control | dose: 10.4 mg/kg/injection, schedule: Q04DX003 (iv), vehicle: saline 117 % of control | dose: 13.0 mg/kg/injection, schedule: Q01DX001 (iv), vehicle: saline 111 % of control and 112 % of control | dose: 15.0 mg/kg/injection, schedule: Q01DX009 (ip), vehicle: saline 113 % of control | dose: 20.0 mg/kg/injection, schedule: Q01DX001 (iv), vehicle: saline 115 % of control | dose: 21.6 mg/kg/injection, schedule: Q01DX001 (iv), vehicle: saline 117 % of control | dose: 24.0 mg/kg/injection, schedule: Q04DX003 (ip), vehicle: saline 116 % of control | dose: 25.0 mg/kg/injection, schedule: Q01DX009 (ip), vehicle: water 122 % of control | dose: 32.0 mg/kg/injection, schedule: Q04DX003 (ip), vehicle: Klucel (hydroxypropylcellulose) (HPC) 114 % of control | dose: 36.0 mg/kg/injection, schedule: Q01DX005 (ip), vehicle: saline 121 % of control

O=c1[nH]cc(NS(=O)(=O)c2ccc([N+](=O)[O-])cc2)c(=O)[nH]1
inactive: dose: 60.0 mg/kg/injection, schedule: Q01DX005 (ip), vehicle: Klucel (hydroxypropylcellulose) (HPC) 101 % of control | dose: 120.0 mg/kg/injection, schedule: Q01DX005 (ip), vehicle: Klucel (hydroxypropylcellulose) (HPC) 103 % of control | dose: 240.0 mg/kg/injection, schedule: Q01DX005 (ip), vehicle: Klucel (hydroxypropylcellulose) (HPC) 108 % of control
